The values below are quoted from earlier work in patent US20250082708A1, “HERBAL COMPOSITION FOR USE IN THE TREATMENT OR PREVENTION OF POSTPARTUM DEPRESSION” (CRISTALFARMA S.R.L., priority 2022, published 2025).

The series deals with women with postpartum depression. To be noted: 8 weeks treatment; Amini et al.

With vitamin D, the “reduction of EPDS questionnaire score with respect to baseline, versus placebo control group” value is on record as “greater reduction”.
